System: P. aeruginosa
Assay: Bacterial suspension assay (OD measurement)
Format: cell-based
Conditions: tetracycline 10 and 20 μg/mL; 24 h
Description: Gels were prepared in 24-well sterile Nunc plates. 10 mM AgNO3 solution in 100 mM Tris-buffer (pH=8.5) was freshly prepared and used to dissolve the peptide to a final concentration of 10 mg/mL. The resultant solution was sonicated for 15-20 s to ensure complete dissolution of the peptide. 400 μL of the peptide solution was then aliquoted into each well and allowed to spread evenly on the surface. […] Prior to use, the plates were exposed to short-wavelength UV at 254 nm for 5 minutes to allow Ag NP formation. For the control gels, 100 mM Tris buffer without AgNO3 was used for Ac-LK6—NH2 hydrogel preparation.
50 μL of bacterial stock was inoculated overnight in 5 mL of Luria-Bertani (LB) medium (pH=7.5), with constant shaking at 300 rpm at 37° C. The log-phase bacterial solution was then diluted in LB medium to obtain an O.D. of 0.07 (at 600 nm). This was used as the starting bacterial solution (0 hr reading) and 400 μL of the solution was dispensed into each well of the 24-well plate containing the hydrogels. […] Ac-LK6—NH2 hydrogels without Ag NPs and bacteria-only solutions served as the negative controls. […] For the O.D. readings, 100 μL of the bacterial solution was transferred into a transparent 96 well Nunc plate just before measurement, to prevent the hydrogel layer from influencing absorbance measurements. […]

SMILES: CN(C)[C@@H]1C(O)=C(C(N)=O)C(=O)[C@@]2(O)C(O)=C3C(=O)c4c(O)cccc4[C@@](C)(O)[C@H]3C[C@@H]12 [tetracycline, Tetracycline]
- growth inhibition compared to the untreated control: about 50%
